Consider 1 substance from patent US20170088822A1 (priority 2015, published 2017).

Where “and” joins values, the source holds several entries; their conditions need not be identical. Equal values may be shown once.

The test system of assay [1] is BpmFabI. Type of assay: biochemical, Burkholderia pseudomallei.
In assay [2] the test system is S. aureus. As to conditions: cited from earlier work.
Assay [3] concerns BpmFabI. Type of assay: binding, Burkholderia pseudomallei.
The test system of assay [4] is drug resistant staphylococci including MRSA and MRSE. The following applies: cited from earlier work.

Usually IC50 stands for the midpoint of a concentration-inhibition curve. By MIC50 is commonly meant an inhibitory concentration at the 50% level, which refers to growth in some studies and to a panel of isolates in others. In general, ΔTm refers to the change in melting temperature against a reference sample. AFN-1252: in assay [1], the “Mechanism of inhibition with respect to NADH (Lineweaver-Burk)” value was “mixed inhibition” and the “Mechanism of inhibition with respect to crotonyl-CoA (Lineweaver-Burk)” value is “uncompetitive”. Besides, the IC50 in assay [1] (read-out: IC50 for inhibition of BpmFabI) is 9.6 nM. For the same substance, the MIC50 in assay [2] was 2 to 120 ng/mL. Moreover, the ΔTm in assay [3] was 12.76 ± 1.26 °C and 11.61 ± 0.10 °C. Moreover, the “Activity against drug resistant staphylococci” value in assay [4] was “potent”.
